Measurements published in ChEMBL document CHEMBL1151858, “4-Piperidines and 3-pyrrolidines as dual serotonin and noradrenaline reuptake inhibitors: design, synthesis and structure-activity relationships” (Bioorg Med Chem Lett, 2009).

What was measured:
[1] = Octanol-water distribution coefficient, log D at pH 7.4; type: physicochemical
[2] = in vitro; conditions: human, liver microsomes
[3] = Volume of distribution in rat at 5 mg/kg, iv administered as single dose; type: ADME, organism-based; set-up: dose 5 mg/kg, route intravenous; conditions: in vivo
[4] = Plasma clearance in rat at 5 mg/kg, iv administered as single dose; type: ADME, organism-based; set-up: dose 5 mg/kg, route intravenous
[5] = Elimination half life in rat at 5 mg/kg, iv administered as single dose; type: ADME, organism-based; set-up: dose 5 mg/kg, route intravenous; conditions: in vivo, read-out: beta t1/2 (converted)

| SMILES | logD [1] | half-life [2] | Vd [3] | clearance [4] | half-life [5] |
| --- | --- | --- | --- | --- | --- |
| Clc1cccc(OC(c2cccnc2)C2CCNCC2)c1Cl (single isomer, unassigned; enantiomer 1) | 1.2 | > 120 min | 33 L/kg | 180 mL/min/kg | 120 min |
| CNCC[C@H](Oc1cccc2ccccc12)c1cccs1 [DULOXETINE] |  | > 120 min |  |  |  |
| Clc1cccc(OC(c2ccccn2)[C@H]2CCNC2)c1Cl (some centres undefined) | 0.9 | > 120 min |  |  |  |
| Cc1ccc(C(Oc2cccc(Cl)c2Cl)C2CCNCC2)cn1 (centres undefined) |  | > 120 min |  |  |  |
